In patent US20070123492A1, “Analogs of lysophosphatidic acid and methods of making and using thereof” (priority 2003, published 2007):

Assays:
LPA receptor = conditions: Xenopus oocytes; cited from earlier work
LPA3 [1] = target: T1, LPA3 (Homo sapiens, UniProt Q9UBY5); test: Agonist/antagonist activity in insect cells expressing LPA3; type: cell-based; set-up: expressed in transfected cells; host or cells: insect cells
T1 sequence (Q9UBY5 1-353): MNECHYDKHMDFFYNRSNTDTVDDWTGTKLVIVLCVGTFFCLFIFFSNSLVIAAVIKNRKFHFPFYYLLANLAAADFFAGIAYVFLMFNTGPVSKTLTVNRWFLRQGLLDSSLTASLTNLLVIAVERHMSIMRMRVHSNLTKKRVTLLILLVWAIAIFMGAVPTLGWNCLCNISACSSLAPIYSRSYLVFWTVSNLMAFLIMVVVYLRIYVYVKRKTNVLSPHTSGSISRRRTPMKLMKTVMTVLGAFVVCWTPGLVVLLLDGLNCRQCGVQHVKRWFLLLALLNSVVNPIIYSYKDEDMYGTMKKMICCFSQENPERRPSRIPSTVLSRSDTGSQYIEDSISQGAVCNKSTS

platelets = test: Platelet activation by fluorinated LPA analogues; type: cell-based; conditions: preliminary results
LPA1 = target: T2, LPA1 (Homo sapiens, UniProt Q92633); test: Agonist/antagonist activity in insect cells expressing LPA1; type: cell-based
T2 construct: expressed in transfected cells; host or cells: insect cells
T2 sequence (Q92633 whole entry, species assumed): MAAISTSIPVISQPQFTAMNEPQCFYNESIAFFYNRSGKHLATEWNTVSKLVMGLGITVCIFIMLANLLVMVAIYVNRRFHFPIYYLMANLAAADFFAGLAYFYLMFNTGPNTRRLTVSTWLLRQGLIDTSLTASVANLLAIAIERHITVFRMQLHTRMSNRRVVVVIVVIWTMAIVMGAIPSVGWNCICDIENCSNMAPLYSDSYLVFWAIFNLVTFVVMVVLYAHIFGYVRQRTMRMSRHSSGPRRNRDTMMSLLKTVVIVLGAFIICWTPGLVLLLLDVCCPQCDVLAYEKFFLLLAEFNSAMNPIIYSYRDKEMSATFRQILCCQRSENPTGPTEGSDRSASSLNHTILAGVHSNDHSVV

(18:1) LPA pain response = test: (18:1) LPA pain response; type: in vivo; conditions: preliminary results
LPA2 = target: T3, LPA2 (Homo sapiens, UniProt Q9HBW0); test: Agonist/antagonist activity in insect cells expressing LPA2; type: cell-based
T3 construct: expressed in transfected cells; host or cells: insect cells
T3 sequence (Q9HBW0 whole entry, species assumed): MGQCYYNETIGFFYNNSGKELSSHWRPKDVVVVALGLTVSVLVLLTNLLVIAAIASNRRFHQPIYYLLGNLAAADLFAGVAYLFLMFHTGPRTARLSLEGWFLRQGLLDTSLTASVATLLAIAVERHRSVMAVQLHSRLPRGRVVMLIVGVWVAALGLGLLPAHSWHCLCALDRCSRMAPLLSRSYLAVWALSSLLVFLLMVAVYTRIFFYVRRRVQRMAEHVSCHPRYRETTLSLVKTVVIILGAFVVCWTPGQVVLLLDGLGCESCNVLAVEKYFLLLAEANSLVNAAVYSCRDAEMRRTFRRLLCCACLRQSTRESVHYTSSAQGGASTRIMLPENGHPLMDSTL

Edg7/LPA3 = Edg7/LPA3 (Homo sapiens, UniProt Q9UBY5); conditions: Edg7/LPA3 as compared to Edg2/LPA1 or Edg4/LPA2; cited from earlier work
LPA3 [2] = target: T1, LPA3; test: Potency on the LPA3 receptor; type: cell-based; conditions: preliminary data

Question: With CCCCCCCCCCCCCCCC(=O)NC(COP(=O)(O)O)C(=O)O (centres unmarked) [compound 33] as the compound, how does the “antagonism of LPA receptor function” value (LPA receptor) read?
Answer: Its value is “potent competitive antagonists”.

Question: With CCCCCCCC/C=C\CCCCCCCC(=O)O[C@H](CF)COP(=O)(O)O [Compound 1a, 1-Phospho-2(S)-(oleoyl)-3-fluorine-propane-1,2-diol] as the compound, how does the “agonist or antagonist activity” value (LPA3 [1]) read?
Answer: The value was “failed to show either significant agonist or antagonist activity”.

Question: What about the “ability to activate platelets” value (platelets) of the same compound?
Answer: The value was “able to activate platelets”.

Question: What about the “agonist or antagonist activity” value (LPA1) of the same compound?
Answer: The value was “failed to show either significant agonist or antagonist activity”.

Question: And the “agonism of the (18:1) LPA pain response” value ((18:1) LPA pain response)?
Answer: The value was “partial agonists”.

Question: And the “agonist or antagonist activity” value (LPA2)?
Answer: The value was “failed to show either significant agonist or antagonist activity”.

Question: With CCCCCCCC/C=C\CCCCCCCC(=O)OC[C@@H](COP(O)(O)=S)OC [OMPT] as the compound, how does the receptor subtype selectivity (Edg7/LPA3) read?
Answer: Its receptor subtype selectivity is “preferred selectivity for Edg7/LPA3”.

Question: Which “antagonism of LPA receptor function” value (LPA receptor) does the source give for CCCCCCCCCCCCCCCC(=O)NC(Cc1ccc(OP(=O)(O)O)cc1)C(=O)O (centres unmarked) [compound 34] here?
Answer: Its value is “potent competitive antagonists”.

Question: Which “potency on LPA3 relative to 1a (R)” value (LPA3 [2]; relative to 1a (R)) does the source give for CCCCCCCC/C=C\CCCCCCCC(=O)O[C@H](CF)COP(=O)(O)O [Compound 1c, 1-Phospho-2(S)-(oleoyl)-3-fluorine-propane-1,2-diol] here?
Answer: Its value is “approximately 100 fold”.

Question: What about the “potency relative to natural 18:1 LPA on the LPA3 receptor” value (LPA3 [2]) of the same compound?
Answer: Its value is “somewhat more potent”.

Question: With “[1-Fluoro-3(S)-hydroxyl-4-(oleoyloxy)butyl]phosphonate [Compound 3aa]” as the compound, how does the “potency on LPA3 relative to 3ab (R)” value (LPA3 [2]; relative to 3ab (R)) read?
Answer: Its value is “approximately 100 fold”.

Question: What about the “potency relative to natural 18:1 LPA on the LPA3 receptor” value (LPA3 [2]) of the same compound?
Answer: The value was 1000 fold.

Question: What does the source list for CCCCCCCCCCCCCCCC(=O)O[C@H](CF)COP(=O)(O)O [Compound 1b, 1-Phospho-2(S)-(palmitoyl)-3-fluorine-propane-1,2-diol]?
Answer: agonist or antagonist activity (LPA3 [1]): failed to show either significant agonist or antagonist activity; ability to activate platelets (platelets): able to activate platelets; agonist or antagonist activity (LPA1): failed to show either significant agonist or antagonist activity; agonism of the (18:1) LPA pain response ((18:1) LPA pain response): partial agonists; agonist or antagonist activity (LPA2): failed to show either significant agonist or antagonist activity
